Experimental data: patent US11083699B2, “Trans-4-hydroxycyclohexyl phenyl amide mitofusin activators and methods of use thereof” (MITOCHONDRIA EMOTION, INC., priority 2019, dated 2021)
Where two headings read alike, the source gives them in different places.

What was measured:
MAO-A = biological target: T1, MAO-A (Homo sapiens, UniProt P21397); assay: Receptor/kinase panel: MAO-A; format: biochemical; details: off-target DAT/MAO-A at 10 μM vs on-target potency
T1 sequence (P21397 1-527): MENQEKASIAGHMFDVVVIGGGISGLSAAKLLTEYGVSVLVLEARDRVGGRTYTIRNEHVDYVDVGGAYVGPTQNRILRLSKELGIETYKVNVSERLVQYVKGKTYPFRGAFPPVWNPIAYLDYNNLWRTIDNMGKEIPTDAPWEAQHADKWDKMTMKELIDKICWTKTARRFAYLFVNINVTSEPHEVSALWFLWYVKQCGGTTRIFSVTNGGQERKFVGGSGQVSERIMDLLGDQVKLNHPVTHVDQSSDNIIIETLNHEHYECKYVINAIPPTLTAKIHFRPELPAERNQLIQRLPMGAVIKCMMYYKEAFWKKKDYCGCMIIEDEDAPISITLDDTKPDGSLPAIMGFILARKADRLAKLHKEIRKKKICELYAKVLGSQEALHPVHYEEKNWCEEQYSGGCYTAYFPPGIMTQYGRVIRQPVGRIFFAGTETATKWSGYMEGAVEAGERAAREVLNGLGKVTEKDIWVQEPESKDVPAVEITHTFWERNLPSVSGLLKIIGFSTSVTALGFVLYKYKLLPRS

[1] = Mouse PK, plasma and brain levels after single IV dose; format: in vivo; details: single 10 mg/kg IV
[2] = Stability in mouse liver microsomes; format: in vitro ADME
[3] = Stability in human liver microsomes; format: in vitro ADME
[4] = Parallel artificial membrane permeability assay (PAMPA); format: in vitro ADME
P-gp = P-gp (Homo sapiens, UniProt P08183); assay: P-gp study, bidirectional permeability in NIH MDR1 cells; format: in vitro ADME
Sequence of P-gp (P08183 whole entry): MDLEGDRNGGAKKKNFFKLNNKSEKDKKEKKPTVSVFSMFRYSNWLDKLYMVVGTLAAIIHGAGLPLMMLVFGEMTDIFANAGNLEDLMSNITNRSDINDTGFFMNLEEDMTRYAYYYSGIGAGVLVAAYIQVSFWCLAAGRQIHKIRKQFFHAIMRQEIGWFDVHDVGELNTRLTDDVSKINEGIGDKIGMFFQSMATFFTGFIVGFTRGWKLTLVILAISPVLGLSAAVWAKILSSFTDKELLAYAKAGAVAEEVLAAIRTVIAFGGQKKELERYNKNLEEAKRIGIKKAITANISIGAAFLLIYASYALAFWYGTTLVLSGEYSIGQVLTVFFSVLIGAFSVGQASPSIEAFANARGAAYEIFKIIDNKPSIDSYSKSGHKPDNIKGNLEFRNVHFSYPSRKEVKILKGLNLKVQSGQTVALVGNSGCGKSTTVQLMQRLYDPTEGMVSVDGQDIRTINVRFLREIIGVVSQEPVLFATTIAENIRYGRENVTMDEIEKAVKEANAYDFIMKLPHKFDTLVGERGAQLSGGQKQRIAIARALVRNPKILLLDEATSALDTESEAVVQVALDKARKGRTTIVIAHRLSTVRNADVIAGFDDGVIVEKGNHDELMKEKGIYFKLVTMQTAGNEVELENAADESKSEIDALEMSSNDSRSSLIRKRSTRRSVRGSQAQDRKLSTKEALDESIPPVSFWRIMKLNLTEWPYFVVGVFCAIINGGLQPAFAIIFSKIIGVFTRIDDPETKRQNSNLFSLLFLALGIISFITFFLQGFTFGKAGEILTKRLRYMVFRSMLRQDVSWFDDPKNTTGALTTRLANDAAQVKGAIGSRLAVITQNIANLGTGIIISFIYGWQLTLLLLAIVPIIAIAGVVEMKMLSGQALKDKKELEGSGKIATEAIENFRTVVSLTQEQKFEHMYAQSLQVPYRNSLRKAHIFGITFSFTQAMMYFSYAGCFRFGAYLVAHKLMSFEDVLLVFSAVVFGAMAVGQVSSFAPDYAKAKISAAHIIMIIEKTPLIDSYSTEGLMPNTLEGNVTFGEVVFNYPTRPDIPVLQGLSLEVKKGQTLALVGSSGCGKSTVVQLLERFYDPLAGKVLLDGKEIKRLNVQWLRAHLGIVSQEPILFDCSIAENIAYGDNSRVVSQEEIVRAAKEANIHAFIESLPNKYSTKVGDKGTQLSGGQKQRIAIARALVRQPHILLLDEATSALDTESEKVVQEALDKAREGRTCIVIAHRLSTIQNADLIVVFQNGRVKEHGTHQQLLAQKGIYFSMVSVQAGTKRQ

[5] = GF120918 −, read-out: Mean Recovery % A to B

O=C(CCCCCc1ccccc1)N[C@H]1CC[C@H](O)CC1 [Compound 15B, N-(trans-4-Hydroxycyclohexyl)-6-phenylhexanamide]
safety window compared to on-target efficacy (MAO-A): 1,000 fold
Vdss (volume of distribution at steady state) [1]: 0.35 L/kg
time therapeutic brain levels (>30 ng/g) were maintained [1]: more than 2 hours

O=C(CCCCOc1ccccc1)N[C@H]1CC[C@H](O)CC1 [Compound 21]
t1/2 MLM [2]: >2.42 h
t1/2 HLM [3]: >2.42 h

O=C(CCCOCc1ccccc1)N[C@H]1CC[C@H](O)CC1 [Compound 22]
t1/2 MLM [2]: >2.42 h
t1/2 HLM [3]: >2.42 h

O=C(CCOCCc1ccccc1)N[C@H]1CC[C@H](O)CC1 [Compound 23]
t1/2 MLM [2]: >2.42 h
t1/2 HLM [3]: >2.42 h

O=C(COCCCc1ccccc1)N[C@H]1CC[C@H](O)CC1 [Compound 24]
t1/2 MLM [2]: >2.42 h
t1/2 HLM [3]: >2.42 h

O=C(N[C@H]1CC[C@H](O)CC1)OCCCCc1ccccc1 [Compound 25]
t1/2 MLM [2]: 0.815 h
t1/2 HLM [3]: 2.188 h
PAMPA compared to parent trans-N-(4-hydroxycyclohexyl)-6-phenylhexanamide [4]: 10 fold

C[C@H]1O[C@@H](O[C@H]2[C@@H](O)C[C@H](O[C@H]3[C@@H](O)C[C@H](O[C@H]4CC[C@@]5(C)[C@H](CC[C@@H]6[C@@H]5C[C@@H](O)[C@]5(C)[C@@H](C7=CC(=O)OC7)CC[C@]65O)C4)O[C@@H]3C)O[C@@H]2C)C[C@H](O)[C@@H]1O [Digoxin]
recovery (P-gp; [5]): 98.9%
recovery (P-gp; GF120918 −, read-out: Mean Recovery % B to A): 103%
Papp B→A (P-gp; MDCK-MDR1, with GF120918 (concentration not stated), GF120918 +): 2.05 ×10⁻⁶ cm/s
Papp B→A (P-gp; MDCK-MDR1, GF120918 −): 13.4 ×10⁻⁶ cm/s
recovery (P-gp; with GF120918 (concentration not stated), GF120918 +, read-out: Mean Recovery % B to A): 99.3%

COCCc1ccc(OCC(O)CNC(C)C)cc1 (centres unmarked) [Metoprolol]
recovery (P-gp; [5]): 105%
Papp A→B (P-gp; MDCK-MDR1, GF120918 −): 21.2 ×10⁻⁶ cm/s

CC(C)(C)NCC(O)COc1cccc2c1CC(O)C(O)C2 (centres unmarked) [Nadolol]
recovery (P-gp; [5]): 97.9%
Papp A→B (P-gp; MDCK-MDR1, GF120918 −): 0.26 ×10⁻⁶ cm/s
